# Measured values from patent publication US8633206B2, “Pyrrolo[2,3-D]pyrimidine compounds” (Pfizer Inc., priority 2009, dated 2014).
# What was measured:
# Format in all cases: biochemical
# JAK1 = JAK1 (Homo sapiens (Human), UniProt P23458); assay: JAK enzymatic assay (peptide mobility shift), JAK1; settings: recombinant JAK1 20 nM, IRS-1 peptide, 240 minutes
# JAK2 = JAK2 (Homo sapiens (Human), UniProt O60674); assay: JAK enzymatic assay (peptide mobility shift), JAK2; settings: recombinant JAK2 2 nM, JAKtide peptide, 150 minutes
# JAK3 = JAK3 (Homo sapiens (Human), UniProt P52333); assay: JAK enzymatic assay (peptide mobility shift), JAK3; settings: recombinant JAK3 1 nM, JAKtide peptide, 90 minutes
# Chain of JAK3 (P52333 781-1124): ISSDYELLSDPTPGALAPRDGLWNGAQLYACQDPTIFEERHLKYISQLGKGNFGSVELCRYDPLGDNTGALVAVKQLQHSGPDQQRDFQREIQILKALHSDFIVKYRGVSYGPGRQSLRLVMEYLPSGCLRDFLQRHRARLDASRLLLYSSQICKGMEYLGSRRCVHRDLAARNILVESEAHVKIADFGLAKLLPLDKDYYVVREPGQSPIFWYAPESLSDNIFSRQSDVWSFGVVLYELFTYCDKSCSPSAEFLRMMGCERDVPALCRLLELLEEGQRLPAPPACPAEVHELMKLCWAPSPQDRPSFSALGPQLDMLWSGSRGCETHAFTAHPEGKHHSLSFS
# Chain of JAK1 (P23458 whole entry): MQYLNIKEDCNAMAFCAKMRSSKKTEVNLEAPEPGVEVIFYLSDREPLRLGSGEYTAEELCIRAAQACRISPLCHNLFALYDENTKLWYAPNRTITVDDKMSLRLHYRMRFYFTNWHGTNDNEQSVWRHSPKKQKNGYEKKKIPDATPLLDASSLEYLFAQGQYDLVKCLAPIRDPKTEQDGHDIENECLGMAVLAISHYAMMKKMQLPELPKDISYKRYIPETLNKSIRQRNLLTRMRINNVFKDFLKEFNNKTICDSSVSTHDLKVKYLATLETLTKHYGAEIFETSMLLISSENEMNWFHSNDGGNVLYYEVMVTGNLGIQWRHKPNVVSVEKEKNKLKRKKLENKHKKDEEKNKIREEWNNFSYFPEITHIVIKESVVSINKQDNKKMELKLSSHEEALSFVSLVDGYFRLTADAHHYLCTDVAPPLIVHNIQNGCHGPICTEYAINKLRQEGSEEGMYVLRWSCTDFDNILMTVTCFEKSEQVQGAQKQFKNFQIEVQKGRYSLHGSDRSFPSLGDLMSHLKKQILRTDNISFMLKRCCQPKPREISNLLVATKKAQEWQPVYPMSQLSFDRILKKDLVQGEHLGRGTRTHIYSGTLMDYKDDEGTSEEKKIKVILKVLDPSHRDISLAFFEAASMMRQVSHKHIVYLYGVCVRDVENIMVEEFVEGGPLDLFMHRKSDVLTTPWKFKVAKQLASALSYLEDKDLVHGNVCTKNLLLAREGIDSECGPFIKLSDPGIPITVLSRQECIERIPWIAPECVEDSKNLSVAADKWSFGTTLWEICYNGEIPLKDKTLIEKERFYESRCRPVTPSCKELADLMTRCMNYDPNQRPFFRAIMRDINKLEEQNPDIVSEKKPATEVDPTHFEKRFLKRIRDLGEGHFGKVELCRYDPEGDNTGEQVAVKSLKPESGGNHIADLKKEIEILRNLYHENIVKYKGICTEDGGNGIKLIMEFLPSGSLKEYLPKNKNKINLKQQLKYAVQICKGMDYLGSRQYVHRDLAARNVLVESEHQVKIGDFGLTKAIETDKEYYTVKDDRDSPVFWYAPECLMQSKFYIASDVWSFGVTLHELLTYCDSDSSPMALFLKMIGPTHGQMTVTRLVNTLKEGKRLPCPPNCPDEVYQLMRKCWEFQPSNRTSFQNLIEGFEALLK
# Chain of JAK2 (O60674 808-1132): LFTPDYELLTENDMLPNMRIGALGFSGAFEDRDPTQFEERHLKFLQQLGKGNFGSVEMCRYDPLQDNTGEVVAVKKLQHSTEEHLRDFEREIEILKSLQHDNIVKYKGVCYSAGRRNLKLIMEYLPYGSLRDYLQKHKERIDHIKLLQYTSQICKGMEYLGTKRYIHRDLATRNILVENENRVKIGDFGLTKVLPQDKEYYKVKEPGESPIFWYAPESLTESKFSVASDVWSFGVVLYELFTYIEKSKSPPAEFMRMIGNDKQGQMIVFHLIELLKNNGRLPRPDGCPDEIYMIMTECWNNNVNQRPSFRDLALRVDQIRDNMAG
SMILES,IC50 (JAK1) [nM],IC50 (JAK2) [nM],IC50 (JAK3) [nM]
"CN(c1ncnc2[nH]ccc12)[C@H]1CC[C@H](CS(=O)(=O)N2CC(S(=O)(=O)c3ccccc3)C2)CC1 [Example 114, N-methyl-N-[trans-4-({[3-(phenylsulfonyl)azetidin-l-yl]sulfonyl}methyl)cyclo-hexyl]-7H-pyrrolo[2,3-d]-pyrimidin-4-amine]",3.05,9.2,63
"CN(c1ncnc2[nH]ccc12)[C@H]1CC[C@H](CS(=O)(=O)N2CC(O)C2)CC1 [Example 115, 1-[({trans-4-[methyl(7H-pyrrolo[2,3-d]pyrimidin-4-yl)amino]cyclohexyl}-methyl)sulfonyl]azetidin-3-ol]",10.7,34.4,303
"CN(c1ncnc2[nH]ccc12)[C@H]1CC[C@H](CS(=O)(=O)N2CC(S(=O)(=O)CC3CC3)C2)CC1 [Example 116, N-{trans-4-[({3-[(cyclopropylmethyl)-sulfonyl]azetidin-1-yl}sulfonyl)methyl]cyclo-hexyl}-N-methyl-7H-pyrrolo[2,3-d]pyrimidin-4-amine]",10.7,49.9,298
"COC(=O)NC1CN(S(=O)(=O)C[C@H]2CC[C@H](N(C)c3ncnc4[nH]ccc34)CC2)C1 [Example 117, methyl {1-[({trans-4-[methyl(7H-pyrrolo[2,3-d]pyrimidin-4-yl)amino]-cyclohexyl}methyl)sulfonyl]azetidin-3-yl}carbamate]",11,32.4,382
"Cc1ccc(N2CCN(S(=O)(=O)C[C@H]3CC[C@H](N(C)c4ncnc5[nH]ccc45)CC3)CC2)nc1 [Example 118, N-methyl-N-[trans-4-({[4-(5-methylpyridin-2-yl)piperazin-1-yl]sulfonyl}-methyl)cyclohexyl]-7H-pyrrolo[2,3-d]pyrimidin-4-amine]",16.7,50.8,255
"Cc1cccc(N2CCN(S(=O)(=O)C[C@H]3CC[C@H](N(C)c4ncnc5[nH]ccc45)CC3)CC2)n1 [Example 119, N-methyl-N-[trans-4-({[4-(6-methylpyridin-2-yl)piperazin-1-yl]sulfonyl}-methyl)cyclohexyl]-7H-pyrrolo[2,3-d]pyrimidin-4-amine]",6.48,13.7,88.9
"CN(c1ncnc2[nH]ccc12)[C@H]1CC[C@H](CS(=O)(=O)N2CCN(c3ccccn3)CC2)CC1 [Example 120, N-methyl-N-(trans-4-{[(4-pyridin-2-ylpiperazin-1-yl)sulfonyl]methyl}cyclo-hexyl)-7H-pyrrolo[2,3-d]-pyrimidin-4-amine]",8.43,22.3,208
"CC(C)COC1CCCN(S(=O)(=O)C[C@H]2CC[C@H](N(C)c3ncnc4[nH]ccc34)CC2)C1 (stereo partly drawn) [Example 138, N-(trans-4-{[(3-isobutoxypiperidin-1-yl)sulfonyl]methyl}cyclohexyl)-N-methyl-7H-pyrrolo[2,3-d]pyrimidin-4-amine]",0.00133,0.00767,0.132
"CCOP(=O)(OCC)O[C@@H]1CCCN(S(=O)(=O)C[C@H]2CC[C@H](N(C)c3ncnc4[nH]ccc34)CC2)C1 [Example 140, Diethyl (3R)-1-[({trans-4-[methyl(7H-pyrrolo[2,3-d]pyrimidin-4-yl)amino]cyclohexyl}methyl)sulfonyl]piperidin-3-yl phosphate]",0.0235,0.116,1.8

# Other lines, results leading:
IC50 (JAK1) [nM],IC50 (JAK2) [nM],IC50 (JAK3) [nM],SMILES
10.4,43.1,595,"CN(c1ncnc2[nH]ccc12)[C@H]1CC[C@H](CS(=O)(=O)N2CCN(c3ncccc3C(=O)NC3CC3)CC2)CC1 [Example 121, N-cyclopropyl-2-{4-[({trans-4-[methyl(7H-pyrrolo[2,3-d]pyrimidin-4-yl)amino]-cyclohexyl}methyl)sulfonyl]piperazin-1yl}nicotinamide]"
12.1,17.6,271,"CN(c1ncnc2[nH]ccc12)[C@H]1CC[C@H](CS(=O)(=O)N2CCN(c3ncccc3C#N)CC2)CC1 [Example 122, 2-{4-[({trans-4-[methyl(7H-pyrrolo[2,3-d]pyrimidin-4-yl)amino]cyclohexyl}-methyl)sulfonyl]piperazin-1-yl}nicotinonitrile]"
13.7,49.8,323,"CN(c1ncnc2[nH]ccc12)[C@H]1CC[C@H](CS(=O)(=O)N2CCN(Cc3ccccn3)CC2)CC1 [Example 123, N-methyl-N-[trans-4-({[4-(pyridin-2-ylmethyl)-piperazin-1-yl]sulfonyl}-methyl)cyclohexyl]-7H-pyrrolo[2,3-d]pyrimidin-4-amine]"
8.8,29.5,122,"CN(c1ncnc2[nH]ccc12)[C@H]1CC[C@H](CS(=O)(=O)N2CCSC2)CC1 [Example 124, N-methyl-N-{trans-4-[(1,3-thiazolidin-3-ylsulfonyl)-methyl]cyclohexyl}-7H-pyrrolo[2,3-d]pyrimidin-4-amine]"
14.4,62.5,1000,"CN(c1ncnc2[nH]ccc12)[C@H]1CC[C@H](CS(=O)(=O)N2CCCC3(CNC(=O)C3)C2)CC1 (stereo partly drawn) [Example 127, 7-[({trans-4-[methyl(7H-pyrrolo[2,3-d]pyrimidin-4-yl)amino]cyclohexyl}-methyl)sulfonyl]-2,7-diazaspiro[4.5]decan-3-one]"
1.7,6.89,19.4,"C[C@@H]1C[C@@H](CS(=O)(=O)N2CCC[C@@H](O)C2)CC[C@@H]1N(C)c1ncnc2[nH]ccc12 [Example 129, (3R)-1-[({(1S,3R,4S)-3-methyl-4-[methyl(7H-pyrrolo[2,3-d]pyrimidin-4-yl)amino]cyclohexyl}-methyl)sulfonyl]piperidin-3-ol]"
5.28,12,32.5,"C[C@@H]1C[C@@H](CS(=O)(=O)N2CCC[C@H](O)C2)CC[C@@H]1N(C)c1ncnc2[nH]ccc12 [Example 131, (3S)-1-[({(1S,3R,4S)-3-methyl-4-[methyl(7H-pyrrolo[2,3-d]pyrimidin-4-yl)amino]cyclohexyl}methyl)-sulfonyl]piperidin-3-ol]"
0.0227,0.129,3.89,"CN(c1ncnc2[nH]ccc12)[C@H]1CC[C@H](CS(=O)(=O)N2CCC[C@@H](OC(=O)C(C)(C)C)C2)CC1 [Example 134, trans-(R)-1-((4-(methyl(7H-pyrrolo[2,3-d]pyrimidin-4-yl)amino)cyclohexyl)methylsulfonyl)piperidin-3-yl pivalate]"
0.00199,0.0165,0.198,"C[C@H]1CN(S(=O)(=O)C[C@H]2CC[C@H](N(C)c3ncnc4[nH]ccc34)CC2)C[C@@H]1CO [Example 135, {(3r,4r)-4-methyl-1-[({trans-4-[methyl(7H-pyrrolo[2,3-d]pyrimidin-4-yl)amino]cyclohexyl}methyl)sulfonyl]pyrrolidin-3-yl}methanol]"
0.0245,0.109,1.29,"CN1CCN(S(=O)(=O)C[C@H]2CC[C@H](N(C)c3ncnc4[nH]ccc34)CC2)CC1 [Example 136, N-methyl-N-(trans-4-{[(4-methylpiperazin-1-yl)sulfonyl]methyl}cyclohexyl)-7H-pyrrolo[2,3-d]pyrimidin-4-amine]"
0.00125,0.00405,0.0368,"COCCOC1CCCN(S(=O)(=O)C[C@H]2CC[C@H](N(C)c3ncnc4[nH]ccc34)CC2)C1 (stereo partly drawn) [Example 139, N-[trans-4-({[3-(2-methoxyethoxy)piperidin-1-yl]sulfonyl}methyl)cyclohexyl]-N-methyl-7H-pyrrolo[2,3-d]pyrimidin-4-amine]"
0.0263,0.106,0.768,"CN(c1ncnc2[nH]ccc12)[C@H]1CC[C@H](CS(=O)(=O)N2CCC[C@@H](OP(=O)(O)O)C2)CC1 [Example 141, (3R)-1-[({trans-4-[methyl(7H-pyrrolo[2,3-d]pyrimidin-4-yl)amino]cyclohexyl}methyl)sulfonyl]piperidin-3-yl dihydrogen phosphate]"
